Test system: MV-4-11 cells
Experiment: Gene expression microarray analysis (Affymetrix PrimeView) and GSEA
Type: cell-based, human
Design: RFU PODN (11730768_x_at) / Fold change /veh PODN (11730768_x_at) / RFU LINC00158 (11744669_a_at) / Fold change /veh LINC00158 (11744669_a_at) / RFU DUSP10 (11751237_a_at) / Fold change /veh DUSP10 (11751237_a_at) / RFU ID3 (11757404_x_at) / Fold change /veh ID3 (11757404_x_at) / RFU PLEKHG5 (11737974_s_at) / Fold change /veh PLEKHG5 (11737974_s_at) / RFU LRRC4B (11730491_at) / Fold change /veh LRRC4B (11730491_at) / RFU GIMAP4 (11747438_a_at) / Fold change /veh GIMAP4 (11747438_a_at) / RFU KRT8 (11758183_x_at) / Fold change /veh KRT8 (11758183_x_at) / RFU CNN1 (11734310_a_at) / Fold change /veh CNN1 (11734310_a_at) / RFU VPS37D (11726825_at) / Fold change /veh VPS37D (11726825_at) / RFU C10orf10 (11716522_x_at) / Fold change /veh C10orf10 (11716522_x_at) / RFU KIR2DL2 /// KIR2DL4 /// KIR2DL5A /// KIR2DL5B /// KIR2DS1 /// KIR2DS2 /// KIR2DS3 /// KIR2DS4 /// KIR3DL3 /// KIR3DL3 /// KIR3DS1 (11738374_at) / Fold change /veh KIR2DL2 /// KIR2DL4 /// KIR2DL5A /// KIR2DL5B /// KIR2DS1 /// KIR2DS2 /// KIR2DS3 /// KIR2DS4 /// KIR3DL3 /// KIR3DL3 /// KIR3DS1 (11738374_at) / RFU C1QL1 (11718748_at) / Fold change /veh C1QL1 (11718748_at) / RFU TMPRSS4 (11747572_a_at) / Fold change /veh TMPRSS4 (11747572_a_at) / RFU HAMP (11756126_x_at) / Fold change /veh HAMP (11756126_x_at) / RFU RNFT2 (11725882_a_at) / Fold change /veh RNFT2 (11725882_a_at) / RFU NR4A2 (11747474_a_at) / Fold change /veh NR4A2 (11747474_a_at) / RFU ABCC12 (11746883_a_at) / Fold change /veh ABCC12 (11746883_a_at) / RFU TMEM136 (11760407_x_at) / Fold change /veh TMEM136 (11760407_x_at) / RFU CLDN22 /// WWC2 (11732394_at) / Fold change /veh CLDN22 /// WWC2 (11732394_at) / RFU HLA-DPB1 (11760878_x_at) / Fold change /veh HLA-DPB1 (11760878_x_at) / RFU SPINT1 (11716480_a_at) / Fold change /veh SPINT1 (11716480_a_at) / RFU GAP43 (11754022_s_at) / Fold change /veh GAP43 (11754022_s_at) / RFU A4GNT (11735810_at) / Fold change /veh A4GNT (11735810_at) / RFU PRB3 (11715151_x_at) / Fold change /veh PRB3 (11715151_x_at) / RFU TUBB4B (11761932_at) / Fold change /veh TUBB4B (11761932_at) / RFU CAPN14 (11732068_a_at) / Fold change /veh CAPN14 (11732068_a_at) / RFU TMCC2 (11721928_a_at) / Fold change /veh TMCC2 (11721928_a_at) / RFU IRGQ (11745062_a_at) / Fold change /veh IRGQ (11745062_a_at) / RFU FAM174B (11720279_a_at) / Fold change /veh FAM174B (11720279_a_at) / RFU TMPRSS4 (11748680_a_at) / Fold change /veh TMPRSS4 (11748680_a_at) / RFU FAM212B (11763350_a_at) / Fold change /veh FAM212B (11763350_a_at) / RFU PLEKHG5 (11743358_a_at) / Fold change /veh PLEKHG5 (11743358_a_at) / RFU ZSCAN30 (11745921_a_at) / Fold change /veh ZSCAN30 (11745921_a_at) / RFU CMKLR1 (11741424_a_at) / Fold change /veh CMKLR1 (11741424_a_at) / RFU LOC101060620 /// MAPK8IP1 (11723275_at) / Fold change /veh LOC101060620 /// MAPK8IP1 (11723275_at) / RFU SPTSSB (11747773_x_at) / Fold change /veh SPTSSB (11747773_x_at) / RFU PRSS12 (11739890_at) / Fold change /veh PRSS12 (11739890_at) / RFU BIN1 (11741810_x_at) / Fold change /veh BIN1 (11741810_x_at) / RFU WNT11 (11732464_a_at) / Fold change /veh WNT11 (11732464_a_at) / RFU C10orf10 (11716521_a_at) / Fold change /veh C10orf10 (11716521_a_at) / RFU C5orf56 (11738089_at) / Fold change /veh C5orf56 (11738089_at) / RFU CYB561 (11721691_x_at) / Fold change /veh CYB561 (11721691_x_at) / RFU ANKRD19P (11752326_a_at) / Fold change /veh ANKRD19P (11752326_a_at) / RFU OR2T12 /// OR2T33 /// OR2T8 (11738714_s_at) / Fold change /veh OR2T12 /// OR2T33 /// OR2T8 (11738714_s_at) / RFU VCAN (11748164_a_at) / Fold change /veh VCAN (11748164_a_at) / RFU JSRP1 (11732532_at) / Fold change /veh JSRP1 (11732532_at) / RFU KRTAP10-11 (11738290_x_at) / Fold change /veh KRTAP10-11 (11738290_x_at) / RFU MYO3A (11730013_a_at) / Fold change /veh MYO3A (11730013_a_at) / RFU EBF3 (11725865_a_at) / Fold change /veh EBF3 (11725865_a_at) / RFU CAMK2N1 (11719241_x_at) / Fold change /veh CAMK2N1 (11719241_x_at) / RFU C5orf56 (11738088_a_at) / Fold change /veh C5orf56 (11738088_a_at) / RFU OLFML3 (11715873_a_at) / Fold change /veh OLFML3 (11715873_a_at) / RFU LOC100653217 /// NTM (11731650_a_at) / Fold change /veh LOC100653217 /// NTM (11731650_a_at) / RFU MAPK11 (11762145_a_at) / Fold change /veh MAPK11 (11762145_a_at) / RFU FIZ1 (11724087_x_at) / Fold change /veh FIZ1 (11724087_x_at) / RFU OASL (11726364_x_at) / Fold change /veh OASL (11726364_x_at) / RFU SOX15 (11748057_x_at) / Fold change /veh SOX15 (11748057_x_at) / RFU CD79A (11719716_a_at) / Fold change /veh CD79A (11719716_a_at) / RFU HIST1H1D (11736915_at) / Fold change /veh HIST1H1D (11736915_at) / RFU CASKIN2 (11723855_a_at) / Fold change /veh CASKIN2 (11723855_a_at) / RFU LOC730098 (11760151_x_at) / Fold change /veh LOC730098 (11760151_x_at) / RFU OR4N2 (11742367_at) / Fold change /veh OR4N2 (11742367_at) / RFU PRRT2 (11749266_a_at) / Fold change /veh PRRT2 (11749266_a_at) / RFU SNX32 (11753110_a_at) / Fold change /veh SNX32 (11753110_a_at) / RFU CDHR5 (11726645_a_at) / Fold change /veh CDHR5 (11726645_a_at) / RFU RCAN1 (11760418_a_at) / Fold change /veh RCAN1 (11760418_a_at) / RFU FAM167A (11723789_a_at) / Fold change /veh FAM167A (11723789_a_at) / RFU FAM26E (11764081_at) / Fold change /veh FAM26E (11764081_at) / RFU ISYNA1 (11749810_s_at) / Fold change /veh ISYNA1 (11749810_s_at) / RFU ACY1 (11761880_at) / Fold change /veh ACY1 (11761880_at) / RFU 11764098_at / Fold change /veh 11764098_at / RFU SAMD14 (11745864_x_at) / Fold change /veh SAMD14 (11745864_x_at) / RFU NPB (11741838_a_at) / Fold change /veh NPB (11741838_a_at) / RFU TMPRSS6 (11731388_a_at) / Fold change /veh TMPRSS6 (11731388_a_at) / RFU KRTAP10-2 (11738614_at) / Fold change /veh KRTAP10-2 (11738614_at) / RFU ARHGAP8 /// PRR5-ARHGAP8 (11727945_x_at) / Fold change /veh ARHGAP8 /// PRR5-ARHGAP8 (11727945_x_at) / RFU KRTAP5-7 /// NADSYN1 (11734609_at) / Fold change /veh KRTAP5-7 /// NADSYN1 (11734609_at) / RFU RASL12 (11751679_a_at) / Fold change /veh RASL12 (11751679_a_at) / RFU CDKN2B (11736163_a_at) / Fold change /veh CDKN2B (11736163_a_at) / RFU PRF1 (11729649_at) / Fold change /veh PRF1 (11729649_at) / RFU, ZNF638 /// ZNF638-IT1 / Fold change vs veh, ZNF638 /// ZNF638-IT1 / RFU, PANK3 / Fold change vs veh, PANK3 / RFU, SH3YL1 / Fold change vs veh, SH3YL1 / RFU, ZEB2 / Fold change vs veh, ZEB2 / RFU, NRIP1 / Fold change vs veh, NRIP1 / RFU, PTTG1IP / Fold change vs veh, PTTG1IP / RFU, CAPN2 / Fold change vs veh, CAPN2 / RFU, MED14 / Fold change vs veh, MED14 / RFU, SNORA58 / Fold change vs veh, SNORA58 / RFU, C1orf63 / Fold change vs veh, C1orf63 / RFU, LRRFIP1 / Fold change vs veh, LRRFIP1 / RFU, NDUFAF7 / Fold change vs veh, NDUFAF7 / RFU, SLC12A2 / Fold change vs veh, SLC12A2 / RFU, IBTK / Fold change vs veh, IBTK / RFU, ESF1 / Fold change vs veh, ESF1 / Fold change vs veh, TMEM50B / RFU, TAOK1 / Fold change vs veh, TAOK1 / RFU, ACBD3 / Fold change vs veh, ACBD3 / RFU, TMA16 / Fold change vs veh, TMA16 / RFU, RWDD3 / Fold change vs veh, RWDD3 / RFU, BCAT1 / Fold change vs veh, BCAT1 / RFU, EDEM3 / Fold change vs veh, EDEM3 / RFU, TMEM33 / Fold change vs veh, TMEM33 / RFU, WDR75 / Fold change vs veh, WDR75 / RFU, AHCTF1 / Fold change vs veh, AHCTF1 / RFU, TFRC / Fold change vs veh, TFRC / RFU, ZDHHC17 / Fold change vs veh, ZDHHC17 / RFU, NOM1 / Fold change vs veh, NOM1 / RFU, ARL8B / Fold change vs veh, ARL8B / RFU, ZBTB11 / Fold change vs veh, ZBTB11 / RFU, TAMM41 / Fold change vs veh, TAMM41 / RFU, KIAA1704 /// LOC100996395 / Fold change vs veh, KIAA1704 /// LOC100996395 / RFU, ING1 / Fold change vs veh, ING1 / RFU, TRMT61B / Fold change vs veh, TRMT61B / RFU, FUBP3 / Fold change vs veh, FUBP3 / RFU, TP53 / Fold change vs veh, TP53 / RFU, TNKS2 / Fold change vs veh, TNKS2 / RFU, ZFP14 / Fold change vs veh, ZFP14 / RFU, ACTR2 / Fold change vs veh, ACTR2 / RFU, PPP3R1 / Fold change vs veh, PPP3R1 / RFU, PIK3R1 / Fold change vs veh, PIK3R1 / RFU, HNRNPA1 / Fold change vs veh, HNRNPA1 / RFU, RNF170 / Fold change vs veh, RNF170 / RFU, ZNF28 / Fold change vs veh, ZNF28 / RFU, RNGTT / Fold change vs veh, RNGTT / RFU, OGT / Fold change vs veh, OGT / RFU, BRD1 / Fold change vs veh, BRD1 / RFU, MARS / Fold change vs veh, MARS / RFU, ZNF655 / Fold change vs veh, ZNF655 / RFU, FAHD1 / Fold change vs veh, FAHD1 / RFU, BDP1 / Fold change vs veh, BDP1 / RFU, LRRCC1 / Fold change vs veh, LRRCC1 / RFU, ARID1A / Fold change vs veh, ARID1A / RFU, ZNF146 / Fold change vs veh, ZNF146 / RFU, ZNF330 / Fold change vs veh, ZNF330 / RFU, GPN3 / Fold change vs veh, GPN3 / RFU, C9orf123 / Fold change vs veh, C9orf123 / RFU, N4BP2L2 / Fold change vs veh, N4BP2L2 / RFU, ARFIP1 / Fold change vs veh, ARFIP1 / RFU, FAM179B / Fold change vs veh, FAM179B / RFU, BCL10 / Fold change vs veh, BCL10 / RFU, UHRF1BP1L / Fold change vs veh, UHRF1BP1L / RFU, BET1 / Fold change vs veh, BET1 / RFU, CNOT2 / Fold change vs veh, CNOT2 / RFU, ZNF268 / Fold change vs veh, ZNF268 / Fold change vs veh, ZNF507 / RFU, DGCR2 / Fold change vs veh, DGCR2 / RFU, WDSUB1 / Fold change vs veh, WDSUB1 / Fold change vs veh, HSP90B1 /// MIR3652 / RFU, ADSS / Fold change vs veh, ADSS / RFU, GK / Fold change vs veh, GK / RFU, ZNF148 / Fold change vs veh, ZNF148 / RFU, TAF9 / Fold change vs veh, TAF9 / RFU, SLC1A5 / Fold change vs veh, SLC1A5 / RFU, SLMO2 / Fold change vs veh, SLMO2 / RFU, ABCC4 / Fold change vs veh, ABCC4 / RFU, LOC101060439 /// RAP1B / Fold change vs veh, LOC101060439 /// RAP1B / RFU, RFX7 / Fold change vs veh, RFX7 / RFU, GTPBP10 / Fold change vs veh, GTPBP10 / RFU, CNEP1R1 / Fold change vs veh, CNEP1R1 / RFU, BIVM-ERCC5 /// ERCC5 / Fold change vs veh, BIVM-ERCC5 /// ERCC5 / RFU, ILF3 / Fold change vs veh, ILF3 / RFU 11762660_at / Fold change /veh 11762660_at / RFU VCAN (11757783_s_at) / Fold change /veh VCAN (11757783_s_at) / RFU DDX43 (11728927_at) / Fold change /veh DDX43 (11728927_at) / RFU KRT8 (11758188_x_at) / Fold change /veh KRT8 (11758188_x_at) / RFU NKD1 (11759106_at) / Fold change /veh NKD1 (11759106_at) / RFU SRD5A1 (11742802_a_at) / Fold change /veh SRD5A1 (11742802_a_at) / RFU TPSAB1 /// TPSB2 (11721975_s_at) / Fold change /veh TPSAB1 /// TPSB2 (11721975_s_at) / RFU GSTM3 (11746129_a_at) / Fold change /veh GSTM3 (11746129_a_at) / RFU IL23R (11737362_x_at) / Fold change /veh IL23R (11737362_x_at) / RFU TMEM51 (11727254_a_at) / Fold change /veh TMEM51 (11727254_a_at) / RFU PIWIL2 (11732686_x_at) / Fold change /veh PIWIL2 (11732686_x_at) / RFU ORM1 (11744905_x_at) / Fold change /veh ORM1 (11744905_x_at) / RFU CCDC152 (11743942_at) / Fold change /veh CCDC152 (11743942_at) / RFU ECM1 (11717891_a_at) / Fold change /veh ECM1 (11717891_a_at) / RFU IL23R (11748794_a_at) / Fold change /veh IL23R (11748794_a_at) / RFU TNFAIP8L3 (11732012_x_at) / Fold change /veh TNFAIP8L3 (11732012_x_at) / RFU MBOAT4 (11741988_at) / Fold change /veh MBOAT4 (11741988_at) / RFU 11764193_at / Fold change /veh 11764193_at / RFU TMEM53 (11763286_at) / Fold change /veh TMEM53 (11763286_at) / RFU MAGEB2 (11727129_at) / Fold change /veh MAGEB2 (11727129_at) / RFU TMEM200A (11744735_a_at) / Fold change /veh TMEM200A (11744735_a_at) / RFU CCDC152 (11751479_a_at) / Fold change /veh CCDC152 (11751479_a_at) / RFU FAM211A (11726209_a_at) / Fold change /veh FAM211A (11726209_a_at) / RFU RGS16 (11746705_a_at) / Fold change /veh RGS16 (11746705_a_at) / RFU VCAN (11755009_s_at) / Fold change /veh VCAN (11755009_s_at) / RFU RHOB (11743442_s_at) / Fold change /veh RHOB (11743442_s_at) / RFU RGS16 (11720943_a_at) / Fold change /veh RGS16 (11720943_a_at) / RFU RGS16 (11720944_at) / Fold change /veh RGS16 (11720944_at) / RFU, VPS4B / Fold change vs veh, VPS4B / RFU, CREB1 / Fold change vs veh, CREB1 / RFU, DNAJC13 / Fold change vs veh, DNAJC13 / RFU, GNAQ / Fold change vs veh, GNAQ / RFU, CDK5R1 / Fold change vs veh, CDK5R1 / RFU, ZRANB3 / Fold change vs veh, ZRANB3 / RFU, CUL4A / Fold change vs veh, CUL4A / RFU, CCNY / Fold change vs veh, CCNY / RFU, UFL1 / Fold change vs veh, UFL1 / RFU, COG3 / Fold change vs veh, COG3 / RFU, DIAPH2 / Fold change vs veh, DIAPH2 / RFU, SKA2 / Fold change vs veh, SKA2 / RFU, AFF3 / Fold change vs veh, AFF3 / RFU, LMF1 / Fold change vs veh, LMF1 / RFU, IPO11 / Fold change vs veh, IPO11 / RFU, DFFB / Fold change vs veh, DFFB / RFU, FOXP1 / Fold change vs veh, FOXP1 / RFU, CARD8 / Fold change vs veh, CARD8 / RFU, STRN3 / Fold change vs veh, STRN3 / RFU, ADK / Fold change vs veh, ADK / RFU, RASSF2 / Fold change vs veh, RASSF2 / RFU, WIPF1 / Fold change vs veh, WIPF1 / RFU, LARP1B / Fold change vs veh, LARP1B / RFU, RASA1 / Fold change vs veh, RASA1 / RFU, RB1 / Fold change vs veh, RB1 / RFU, PPFIA1 / Fold change vs veh, PPFIA1 / RFU, MAT2A / Fold change vs veh, MAT2A / RFU, CCT5 / Fold change vs veh, CCT5 / RFU, WDR92 / Fold change vs veh, WDR92 / RFU, CUX1 / Fold change vs veh, CUX1 / RFU, TTC7A / Fold change vs veh, TTC7A / RFU, TMEM135 / Fold change vs veh, TMEM135 / RFU, DEPTOR / Fold change vs veh, DEPTOR / RFU, CPM / Fold change vs veh, CPM / RFU, DNAJB6 / Fold change vs veh, DNAJB6 / RFU, CACNA2D3 / Fold change vs veh, CACNA2D3 / RFU, DTX4 / Fold change vs veh, DTX4 / RFU, TFCP2 / Fold change vs veh, TFCP2 / RFU, GMCL1 /// GMCL1P1 / Fold change vs veh, GMCL1 /// GMCL1P1 / RFU, AEBP2 / Fold change vs veh, AEBP2 / RFU, SNHG1 /// SNORD22 /// SNORD25 /// SNORD26 /// SNORD27 /// SNORD28 /// SNORD29 /// SNORD31 / Fold change vs veh, SNHG1 /// SNORD22 /// SNORD25 /// SNORD26 /// SNORD27 /// SNORD28 /// SNORD29 /// SNORD31 / Fold change (Aza/veh), C12orf56 (ProbeSet 11735607_a_at) / Fold change (ACY-1035/veh), C12orf56 (ProbeSet 11735607_a_at) / Fold change (Aza/veh), FGFR1OP (ProbeSet 11751329_s_at) / Fold change (ACY-1035/veh), FGFR1OP (ProbeSet 11751329_s_at) / Fold change (Aza/veh), VPS36 (ProbeSet 11739960_a_at) / Fold change (ACY-1035/veh), VPS36 (ProbeSet 11739960_a_at) / RFU SYPL1 (11715823_x_at) / Fold change /veh SYPL1 (11715823_x_at) / RFU IGFBP7 (11715501_s_at) / Fold change /veh IGFBP7 (11715501_s_at) / RFU REEP3 (11722064_at) / Fold change /veh REEP3 (11722064_at) / RFU IGLL1 (11728026_x_at) / Fold change /veh IGLL1 (11728026_x_at): dose or concentration left out as unconfirmed
Settings: ProbeSet 11732370_a_at; LIST D

Nc1ccc(-c2cccs2)cc1NC(=O)c1ccc2c(c1)cc(C1CC1)n2CCN1CCOCC1 [ACY-1035]
RFU, CUX1: 235.11 RFU

Reference: PMC5218480 (PLoS ONE, 2017)
